Read-outs that look alike come from different tables or passages of the source. Where a SMILES comes first, the peptide text is derived from it. The star is where a group is joined. Cbz = O=C(OCc1ccccc1)*
What was measured:
[1] = system: SmgGDS; assay: SmgGDS expression in HUVEC after 24 h drug treatment (western blot); format: cell-based, human; settings: for SmgGDS expression level in HUVEC: 24 h treatment, atorvastatin 10 and 30 μM, pitavastatin 1 and 10 μM; for inhibition of the statin-induced increase in SmgGDS expression level: FPP or GGPP 10 μM co-treated with atorvastatin or pitavastatin, 24 h
[2] = system: AngII-induced production of ROS in HUVEC; assay: Reactive oxygen species analysis (DCF staining) in siRNA-transfected HUVEC; format: cell-based, human; settings: atorvastatin 1 μM or pitavastatin 0.1 μM 24 h, then 1 μM AngII 3 h
Protocol: (§1) An AngII-induced cardiovascular hypertrophy model in mice was produced according to Yagi et al.'s literature (Yagi, S. et al., Circ. Res. 102, 68-76 (2008)). Statins were administered to mice by gavage every day for 2 weeks. After 2 weeks of sustained AngII administration by means of osmotic pump, the present inventors observed the left ventricular function and measured the weight of the heart of each mouse by means of an ultrasound imaging system. […] After a 2 weeks washout period, the subjects were switched to take an alternative medicine for additional 2 weeks.
(§2) Multiple siRNAs duplexes specific to SmgGDS were purchased from Qiagen. A functional non-targeting siRNA that was bioinformatically designed by Qiagen was used as a control. Either 10 nM control siRNA or 10 nM siRNA that was specific to SmgGDS was transfected into HUVEC with HiPerFect transfection Reagent (Qiagen). After 72 hour post-transfection, the cells were analyzed by either Wester blot or ROS analysis.
The present inventors treated HUVEC with AngII (1μM, Wako) at 37° C. in 5% CO2 for 3 hours, washed them with PBS and stained them with 2,7-dichlorofluoroscein diacetate (H2DCF-DA) (5 μM, Cayman) at 37° C. for 30 minutes to visualize the ROS production as green fluorescence (488 nm) through a fluorescence microscope (BIOREVO, Keyence). The relative fluorescence intensity was measured by means of BZ-II analyzer (Keyence) software.

[3] = system: Racl; assay: Protein expression in HUVEC subcellular fractions: Racl (with or without proteasome inhibitor MG-132)
[4] = system: SmgGDS; assay: Protein expression in HUVEC subcellular fractions: SmgGDS; format: cell-based, human; settings: HUVEC cytoplasm fraction, 24 h; atorvastatin 10 μM, pitavastatin 1 μM
[5] = Human study: plasma lipid profiles, glucose, insulin and HOMA-IR; format: in vivo; settings: for HDL-cholesterol, Change (%) / LDL-cholesterol, Change (%) / MDA-LDL, Change (%) / RLP cholesterol, Change (%) / Total cholesterol, Change (%) / Triglyceride, Change (%) / HDL-cholesterol, After 2 weeks / LDL-cholesterol, After 2 weeks / MDA-LDL, After 2 weeks / RLP cholesterol, After 2 weeks / Triglyceride, After 2 weeks / Total cholesterol, After 2 weeks: healthy volunteers; for HDL-cholesterol, Change (%) / LDL-cholesterol, Change (%) / MDA-LDL, Change (%) / RLP cholesterol, Change (%) / Total cholesterol, Change (%) / Triglyceride, Change (%): 20 mg day^−1, after 2 weeks vs baseline; for HDL-cholesterol, After 2 weeks / LDL-cholesterol, After 2 weeks / MDA-LDL, After 2 weeks / RLP cholesterol, After 2 weeks / Triglyceride, After 2 weeks / Total cholesterol, After 2 weeks: fasting; for Total cholesterol, After 2 weeks: mean ± s.e.m., n = 20
Excerpt: (§3) The exclusion criteria included abnormal liver or kidney dysfunction before and during the statin administration and treatment.

[6] = system: SmgGDS; assay: Human study: SmgGDS expression in circulating leukocytes (western blot); format: in vivo; settings: for increase of SmgGDS in leukocytes, average of the 20 volunteers: 20 mg, 2 weeks, vs before administration
Excerpt: as §3

[7] = Body weight, blood pressure and plasma lipid profiles in AngII-infused mice; format: in vivo; settings: ATOR 10 mpk, PRA 50 mpk; for Systolic blood pressure / HDL cholesterol / LDL-cholesterol / Total cholesterol / Triglyceride: 2 weeks; for Systolic blood pressure / Body weight: mean ± s.e.m.; for Body weight: gavage daily 2 weeks; for HDL cholesterol / LDL-cholesterol / Total cholesterol / Triglyceride: plasma
Protocol: as §1
The present inventors conducted all mouse experiments in accordance with experimental protocols that were approved by the Animal Care and Use Committee of the Tohoku University Graduate School of Medicine. The present inventors used an AngII-induced cardiovascular hypertrophy model (see Yagi, S . et al . , Circ. Res. 102. 68-76 (2008)) to assess the effect of SmgGDS deficiency on the pleiotropic effects of low-dose statins. The present inventors infused 2.0 mg kg^−1 day^−1 or saline for 2 weeks in 10-week-old male SmgGDS^+/+ littermate control mice and SmgGDS^+/− mice. The inventors dissolved AngII in sterile saline and infused it via osmotic mini-pumps (Alzet model 2002, Alze Corp.). The inventors anesthetized the animals with isofluorane. Then, the inventors prepared subcutaneous pockets in the isofluorane-anesthetized mice and placed the pumps into the subcutaneous pockets through a small incision in the back that was closed by suturing. Either statin or vehicle was administered to both the AngII-infused and saline-infused mouse by gavage every day for 2 weeks . All incision sites rapidly healed without any infection. Systolic blood pressure was measured by using a non-invasive tail-cuff system (MK-2000, Muromachi) 2 weeks after the pump implantation. Plasma lipids (triglycerides, total cholesterol, LDL-cholesterol and HDL-cholesterol) were analyzed with the high-performance liquid chromatography system of Skylight Biotech. Echocardiographic analysis was performed by using an ultrasound imaging system (Vevo 2100, VisualSonic Inc.). The mice were shaved and M-mode images of the left ventricle were recorded while the heart rate was kept at about 500 bpm.

[8] = system: RhoA/Rho-kinase; settings: normal and healthy volunteers, 20 mg day^−1 for 1 week; cited from earlier work
[9] = system: Racl; settings: normal and healthy volunteers, 20 mg day^−1 for 1 week; cited from earlier work
[10] = system: Racl; assay: Racl expression in control or SmgGDS siRNA-transfected HUVEC; format: cell-based, human; settings: control siRNA-transfected HUVEC, statin 24 h
Protocol: as §1, §2

[11] = Plasma concentration of statins in mice; format: in vivo; settings: male, mouse, oral, 24 hours after last of 2-week gavage, atorvastatin 10 mg/kg/day, pravastatin 50 mg/kg/day, read-out: Plasma concentration of statin
Protocol: Furthermore, the present inventors administrated each statin by gavage for 2 weeks from the start of AngII administration ([…], 10 mg/kg/day or pravastatin, 50 mg/kg/day) to the each group of mouse. The present inventors measured plasma concentration of statins 24 hours after the last administration (Table 3).

[12] = control siRNA-transfected HUVEC

## O=C(O)C[C@H](O)C[C@H](O)/C=C/c1c(C2CC2)nc2ccccc2c1-c1ccc(F)cc1 [pitavastatin]
[1]
  SmgGDS expression level in HUVEC: increased SmgGDS expression in HUVEC in a concentration-dependent manner
[2]; SmgGDS siRNA-transfected HUVEC
  AngII-induced production of ROS: The same results were also obtained
[2]; [12]
  AngII-induced production of ROS: The same results were also obtained
[3]; HUVEC nucleus fraction, 24 h, atorvastatin 10 μM, pitavastatin 1 μM
  intra-nuclear Racl level: decreased the intra-nuclear Racl level
[4]
  cytoplasmic SmgGDS level: increased the cytoplasmic SmgGDS level

## O=c1[nH]ccc2c(S(=O)(=O)N3CCCNCC3)cccc12 [HF, hydroxyfasudil]
[1]
  SmgGDS expression level in HUVEC: did not increase the SmgGDS expression level

## CC(C)c1c(C(=O)Nc2ccccc2)c(-c2ccccc2)c(-c2ccc(F)cc2)n1CC[C@@H](O)C[C@@H](O)CC(=O)O [atorvastatin]
[1]
  SmgGDS expression level in HUVEC: increased SmgGDS expression in HUVEC in a concentration-dependent manner
[5]
  HDL-cholesterol, Change (%): 0%
  LDL-cholesterol, Change (%): −46%
  MDA-LDL, Change (%): −38%
  RLP cholesterol, Change (%): −35%
  Total cholesterol, Change (%): −30%
  Triglyceride, Change (%): −33%
[5]; 20 mg day^−1 oral, 2 weeks
  HDL-cholesterol, After 2 weeks: 60 ± 2.7 mg/dL
  LDL-cholesterol, After 2 weeks: 64 ± 3.4 mg/dL
  MDA-LDL, After 2 weeks: 73 ± 4.5 U l^−1
  RLP cholesterol, After 2 weeks: 2.6 ± 0.1 mg/dL
  Triglyceride, After 2 weeks: 73 ± 6.5 mg/dL
  Total cholesterol, After 2 weeks: 138 ± 3.8 mg/dL
[5]; normal healthy adult volunteers, 20 mg day^−1 oral, 2 weeks
  concentration level of total cholesterol and of LDL-cholesterol in blood: reduced the concentration level of total cholesterol and that of LDL-cholesterol in blood
[6]; healthy volunteers, 20 mg day^−1, 2 weeks, vs pre-administration level, n=20
  SmgGDS expression in leukocytes in circulating blood: significantly increased
[6]; healthy volunteers
  increase of SmgGDS in leukocytes, average of the 20 volunteers: about 1.5 times
[6]; the 4 volunteers without increase at 10 mg pravastatin, after switching from pravastatin to atorvastatin
  increase in SmgGDS: 3 volunteers out of the above 4 volunteers showed an increase of SmgGDS
[2]; [12]
  AngII-induced production of ROS: decreased the AngII-induced production of ROS
[7]; AngII-infused SmgGDS+/+ mice
  Systolic blood pressure: 146.7 ± 7.6 mmHg
  Body weight: 27.5 ± 1.1 g
  HDL cholesterol: 76.3 ± 6.8 mg/dL
  LDL-cholesterol: 13.7 ± 1.6 mg/dL
  Total cholesterol: 98.3 ± 7.7 mg/dL
  Triglyceride: 67.0 ± 11.0 mg/dL
[7]; AngII-infused SmgGDS+/− mice
  Systolic blood pressure: 140.4 ± 4.4 mmHg
  Body weight: 26.9 ± 0.5 g
  HDL cholesterol: 81.9 ± 4.8 mg/dL
  LDL-cholesterol: 13.6 ± 1.8 mg/dL
  Total cholesterol: 102.3 ± 6.9 mg/dL
  Triglyceride: 81.4 ± 20.1 mg/dL
[8]
  RhoA/Rho-kinase activity in circulating leucocytes: without suppressing the RhoA/Rho-kinase activity
[9]
  Racl activity in circulating leucocytes: significantly inhibit Racl activity
[4]
  cytoplasmic SmgGDS level: increased the cytoplasmic SmgGDS level
[10]
  Racl expression level in whole cells: decreased Racl expression level in whole cells

## Cn1cc(C2=C(c3ccc(Cl)cc3Cl)C(=O)NC2=O)c2ccccc21 [SB216763]
[1]
  SmgGDS expression level in HUVEC: increased the SmgGDS expression level in a concentration-dependent manner

## CC(C)=CCC/C(C)=C/CC/C(C)=C/COP(=O)(O)OP(=O)(O)O [FPP, farnesyl pyrophosphate]
[1]
  inhibition of the statin-induced increase in SmgGDS expression level: neither FPP nor GGPP inhibited the increase in SmgGDS expression level by statins

## CC(C)C[C@@H](C=O)NC(=O)[C@H](CC(C)C)NC(=O)[C@H](CC(C)C)NC(=O)OCc1ccccc1 [MG-132] (Cbz-Leu-Leu-Leu-aldehyde)
[3]; HUVEC co-treated with atorvastatin and MG-132
  effect of MG-132 on statin-triggered decrease of Racl expression in the nucleus: inhibited the decreased Racl expression level triggered by atorvastatin in the nucleus

## CC(C)=CCC/C(C)=C/CC/C(C)=C/CC/C(C)=C/COP(=O)(O)OP(=O)(O)O [GGPP, geranylgeranyl pyrophosphate]
[1]
  inhibition of the statin-induced increase in SmgGDS expression level: neither FPP nor GGPP inhibited the increase in SmgGDS expression level by statins

## CC[C@H](C)C(=O)O[C@H]1C[C@H](O)C=C2C=C[C@H](C)[C@H](CC[C@@H](O)C[C@@H](O)CC(=O)O)[C@H]21 [pravastatin]
[5]
  HDL-cholesterol, Change (%): 5%
  LDL-cholesterol, Change (%): −24%
  MDA-LDL, Change (%): −25%
  RLP cholesterol, Change (%): −22%
  Total cholesterol, Change (%): −14%
  Triglyceride, Change (%): −16%
[5]; 20 mg day^−1 oral, 2 weeks
  HDL-cholesterol, After 2 weeks: 61 ± 2.8 mg/dL
  LDL-cholesterol, After 2 weeks: 88 ± 4.0 mg/dL
  MDA-LDL, After 2 weeks: 85 ± 6.7 U l^−1
  RLP cholesterol, After 2 weeks: 3.2 ± 0.3 mg/dL
  Triglyceride, After 2 weeks: 87 ± 9.1 mg/dL
  Total cholesterol, After 2 weeks: 165 ± 4.5 mg/dL
[6]; healthy volunteers
  increase of SmgGDS in leukocytes, average of the 20 volunteers: about 1.4 times
[11]; AngII-infused SmgGDS+/+ mice
  concentration at 24 h: 0.43 ± 0.08 ng/mL
[11]; AngII-infused SmgGDS+/− mice
  concentration at 24 h: 0.64 ± 0.24 ng/mL
[7]; AngII-infused SmgGDS+/+ mice
  Systolic blood pressure: 141.0 ± 7.3 mmHg
  HDL cholesterol: 88.0 ± 4.5 mg/dL
  LDL-cholesterol: 16.1 ± 2.3 mg/dL
  Total cholesterol: 111.2 ± 6.8 mg/dL
  Triglyceride: 47.3 ± 10.9 mg/dL
[7]; AngII-infused SmgGDS+/− mice
  Systolic blood pressure: 146.7 ± 6.6 mmHg
  HDL cholesterol: 94.0 ± 4.1 mg/dL
  LDL-cholesterol: 16.1 ± 1.6 mg/dL
  Total cholesterol: 116.7 ± 5.7 mg/dL
  Triglyceride: 56.6 ± 7.3 mg/dL

Source: patent publication US20130065226A1, “METHOD OF DETERMINING DOSE AND ADMINISTRATION OF STATIN” (TOHOKU UNIVERSITY, priority 2011, published 2013)
